“And” between values parts separate entries of the source, which are not always exact repeats. Equal values may be shown once.

Experiment [1] concerns dengue virus type 2. Description: Functional CPE-based assay to measure dose dependent changes in antiviral-drug inhibitory efficacy against Dengue virus type 2 New Guinea C in Huh7 cells. Cells are treated with antiviral candidates that are serially diluted. EC50 is reported via analysis of MTT/MTS assay as a readout of CPE. The assay has been performed by National Institute of Allergy and Infectious Diseases. Format: organism-based, Homo sapiens. The settings on record: Huh-7.

Experiment [2] has as its system Zika virus. Description: Functional immunofluorescence assay to measure dose dependent changes in antiviral-drug inhibitory efficacy against Zika virus PRVABC59 in Vero E6/TMPRSS2 cells. Cells are treated with antiviral candidates that are serially diluted, following infection, cells are fixed. EC50 is reported via analysis of immunofluorescence staining. The assay has been performed by Icahn School of Medicine at Mount Sinai. It counts as organism-based, Chlorocebus sabaeus. The conditions noted are these: for EC50: VeroE6/TMPRSS2.

Experiment [3] deals with dengue virus type 2. Description: Functional immunofluorescence assay to measure dose dependent changes in antiviral-drug inhibitory efficacy against Dengue virus type 2 Thailand/16681/84 in Vero E6/TMPRSS2 cells. Cells are treated with antiviral candidates that are serially diluted, following infection, cells are fixed. EC50 is reported via analysis of immunofluorescence staining. The assay has been performed by Icahn School of Medicine at Mount Sinai. Format: organism-based, Chlorocebus sabaeus.

In experiment [4] the test system is Zika virus. Description: Functional CPE-based assay to measure dose dependent changes in antiviral-drug inhibitory efficacy against Zika virus MR766 in Vero E6 miRFP670 cells. Cells are treated with antiviral candidates that are serially diluted. EC50 is reported via analysis of MTS assay as a readout of CPE. The assay has been performed by KU Leuven. Format: organism-based, Chlorocebus sabaeus, Vero C1008. The conditions noted are these: Zika virus; for EC50: Vero C1008.

For experiment [5], the system named is Zika virus. Description: EC50 is reported via analysis of immunofluorescence staining. The assay has been performed by Icahn School of Medicine at Mount Sinai. It counts as functional, organism-based, Chlorocebus sabaeus, VeroE6/TMPRSS2.
The subject of experiment [6] is dengue virus type 2. Description: Functional assay to measure dose dependent changes in antiviral-drug inhibitory efficacy against Dengue virus type 2 New Guinea C in Vero E6 miRFP670 cells (cotreated with P-gp inhibitor, CP100356). Cells are treated with antiviral candidates that are serially diluted, following infection, cells are fixed. EC50 is reported via analysis of fluorescence intensity using high-content imager. The …. It counts as organism-based, Chlorocebus sabaeus, Vero C1008. The settings on record: for EC90: Baseline response 0 %, Maximum response 100 %, P-gp concentration 500 nM, P-gp inhibitor CP100356.

Experiment [7] concerns Zika virus. Description: Functional CPE-based assay to measure dose dependent changes in antiviral-drug inhibitory efficacy against Zika virus MR766 in Vero E6 miRFP670 cells (cotreated with P-gp inhibitor, CP100356). Cells are treated with antiviral candidates that are serially diluted. EC50 is reported via analysis of MTS assay as a readout of CPE. The assay has been performed by KU Leuven. It counts as organism-based, Chlorocebus sabaeus, Vero C1008. The conditions noted are these: Zika virus, Vero C1008.

For experiment [8], the system named is dengue virus type 2. Description: Functional immunofluorescence assay to measure dose dependent changes in antiviral-drug inhibitory efficacy against Dengue virus type 2 Thailand/16681/84 in Vero E6/TMPRSS2 cells (cotreated with P-gp inhibitor, Elacridar). Cells are treated with antiviral candidates that are serially diluted, following infection, cells are fixed. EC50 is reported via analysis of immunofluorescence staining. The assay has been performed by Icahn School of Medicine at Mount Sinai. Format: organism-based, Chlorocebus sabaeus, VeroE6/TMPRSS2. The conditions noted are these: for EC90: P-gp concentration 2 uM, P-gp inhibitor Elacidar.

On to `O=C(Nc1ccc2c(c1)B(O)OC2)c1cccc(OCc2c(Cl)cccc2Cl)c1`, for which the values for the EC50 in the experiment with dengue virus type 2 [1], with Zika virus [2] and in the experiment on dengue virus type 2 [3] (VeroE6/TMPRSS2) were more than 1.9 µM, 1.09 µM and 0.155 µM, respectively. The EC90 was more than 16.7 µM in the experiment with Zika virus [2] (VeroE6/TMPRSS2, Baseline response 0 %, Hill slope -0.477, Maximum measured 91.001 %, Maximum response 100 %, Minimum measured 4.308 %, R squared 0.689) and 0.735 µM in the experiment with dengue virus type 2 [3] (VeroE6/TMPRSS2).
`COc1cc(N[C@@H](C(=O)N2CCc3ccc(OC(F)(F)F)cc32)c2ccc(Cl)cc2)cc(OCCCC(=O)O)c1`: the EC50 in the experiment with dengue virus type 2 [1] is less than 0.01 µM; in the experiment with Zika virus [4], more than 6.25 µM; in the experiment with Zika virus [5] (Zika virus, VeroE6/TMPRSS2), more than 10 µM; in the experiment on Zika virus [5] (veroe6/tmprss2), 15.1 µM; in the experiment on dengue virus type 2 [6] (Dengue virus, Vero C1008), less than 0.391 µM; in the experiment with Zika virus [7], more than 6.25 µM. Also, in the experiment with dengue virus type 2 [8] (veroe6/tmprss2), the EC50 was less than 0.005 µM. The EC90 in the experiment on Zika virus [4] (Vero C1008, Baseline response 0 %, Hill slope 1.919, Maximum measured 39.533 %, Maximum response 100 %, Minimum measured 0.481 %, R squared 0.987) was more than 6.25 µM; in the experiment with Zika virus [4] (Vero C1008, Baseline response 0 %, Hill slope 2.194, Maximum measured 37.889 %, Maximum response 100 %, Minimum measured -0.884 %, R squared 0.976) it was more than 6.25 µM; in the experiment on Zika virus [4] (Vero C1008, Baseline response 0 %, Hill slope 2.262, Maximum measured 0.1 %, Maximum response 100 %, Minimum measured -2.404 %, R squared 0.714), more than 6.25 µM; in the experiment with Zika virus [5] (Zika virus, VeroE6/TMPRSS2, Maximum measured 96.7 %, Minimum measured 47.971 %, P-gp concentration 2 uM, P-gp inhibitor Elacidar), more than 10 µM; in the experiment with Zika virus [5] (Zika virus, VeroE6/TMPRSS2, Maximum measured 158.114 %, Minimum measured 73.503 %, P-gp concentration 2 uM, P-gp inhibitor Elacidar), more than 10 µM; in the experiment with Zika virus [5] (Zika virus, VeroE6/TMPRSS2, Baseline response 0 %, Hill slope -19.172, Maximum measured 90.933 %, Maximum response 60 %, Minimum measured 7.507 %, P-gp concentration 2 uM, R squared 0.342, P-gp inhibitor Elacidar), more than 16.7 µM. In addition, the EC90 in the experiment on dengue virus type 2 [6] (EC90 CI (lower) 26.978 uM, EC90 CI (upper) 1103.75 uM, Hill slope 1.671, Maximum measured 3.58 %, Minimum measured 0.058 %, R squared 0.662) is less than 0.391 µM; in the experiment with dengue virus type 2 [6] (Hill slope 0.149, Maximum measured 0.277 %, Minimum measured 0.08 %, R squared 0.031) it was less than 0.391 µM; in the experiment with dengue virus type 2 [6] (Hill slope 0.294, Maximum measured 5.954 %, Minimum measured 0.022 %, R squared 0.035), less than 0.391 µM; in the experiment with dengue virus type 2 [6] (Dengue virus, Vero C1008, Hill slope -0.103, Maximum measured 0.223 %, Minimum measured 0.035 %, R squared 0.026), less than 0.391 µM; in the experiment with Zika virus [7] (Baseline response 0 %, Hill slope 1.255, Maximum measured 36.243 %, Maximum response 100 %, Minimum measured 3.426 %, P-gp concentration 500 nM, R squared 0.925, P-gp inhibitor CP100356), more than 6.25 µM; with dengue virus type 2 [8] (Baseline response 0 %, Hill slope 0.035, Maximum measured 8.614 %, Maximum response 100 %, Minimum measured 2.814 %, R squared 0.022) it was less than 0.023 µM. Besides, the EC90 in the experiment on dengue virus type 2 [8] (Baseline response 0 %, Hill slope -0.067, Maximum measured 2.038 %, Maximum response 100 %, Minimum measured 0.482 %, R squared 0.032) is less than 0.005 µM; in the experiment with dengue virus type 2 [8] (Baseline response 0 %, Hill slope -0.192, Maximum measured 3.988 %, Maximum response 100 %, Minimum measured 0.35 %, R squared 0.503) it was less than 0.005 µM.
In the case of `NCc1ccc(-c2ncc(OCC3CCNCC3)nc2-c2ccc(-c3ccoc3)cc2)cc1`, the EC50 is more than 5.5 µM in the experiment with dengue virus type 2 [1]; more than 50 µM in the experiment with Zika virus [2]; 16.1 µM in the experiment on dengue virus type 2 [3] (VeroE6/TMPRSS2); 0.111 µM in the experiment with Zika virus [5] (Zika virus, VeroE6/TMPRSS2); 1 µM with dengue virus type 2 [8] (Dengue virus, VeroE6/TMPRSS2). Besides, the EC90 in the experiment on Zika virus [2] (VeroE6/TMPRSS2, Maximum measured 394.841 %, Minimum measured 61.013 %) was more than 50 µM; with dengue virus type 2 [3] (VeroE6/TMPRSS2, Baseline response -26.43 %, Hill slope -19.353, Maximum measured 64.866 %, Maximum response 59.51 %, Minimum measured 1.549 %, R squared 0.583), more than 16.7 µM; in the experiment with Zika virus [5] (Zika virus, VeroE6/TMPRSS2), 16.5 µM; in the experiment on dengue virus type 2 [8] (Dengue virus, VeroE6/TMPRSS2, Baseline response 0 %, Hill slope -0.497, Maximum measured 90.326 %, Maximum response 100 %, Minimum measured 29.879 %, R squared 0.819) it was more than 16.7 µM.
Take `c1cc(C2CCN(Cc3c[nH]c4ccccc34)CC2)c2ccncc2c1`: the EC50 in the experiment on dengue virus type 2 [1] is 27 µM; in the experiment with Zika virus [2] it was 7.01 µM; with dengue virus type 2 [3] (VeroE6/TMPRSS2), 0.336 µM; in the experiment on dengue virus type 2 [6] (Dengue virus, Vero C1008) it was 2.69 µM; with dengue virus type 2 [8] (veroe6/tmprss2), 0.047 µM and < 0.023 µM. For the same compound, the EC90 was more than 50 µM with Zika virus [2] (VeroE6/TMPRSS2, Baseline response 0 %, Hill slope -0.669, Maximum measured 111.623 %, Maximum response 100 %, Minimum measured 18.809 %, R squared 0.805); 13.6 µM in the experiment with dengue virus type 2 [3] (VeroE6/TMPRSS2, Baseline response 0 %, EC90 CI (lower) 0 uM, EC90 CI (upper) 0.803 uM, Hill slope -0.593, Maximum measured 141.896 %, Maximum response 100 %, Minimum measured 11.317 %, R squared 0.319); more than 50 µM with Zika virus [5] (Baseline response 0 %, Hill slope -0.578, Maximum measured 88.327 %, Maximum response 100 %, Minimum measured 9.758 %, P-gp concentration 2 uM, R squared 0.671, P-gp inhibitor Elacidar); 25.3 µM in the experiment on Zika virus [5] (Zika virus, VeroE6/TMPRSS2); 13.3 µM with dengue virus type 2 [6] (Dengue virus, Vero C1008, EC90 CI (lower) 0.253 uM, EC90 CI (upper) 1.159 uM, Hill slope -1.373, Maximum measured 83.881 %, Minimum measured 4.274 %, R squared 0.884); 1.58 µM in the experiment on dengue virus type 2 [8] (Baseline response 0 %, EC90 CI (lower) 0 uM, EC90 CI (upper) 0.011 uM, Hill slope -0.624, Maximum measured 68.2 %, Maximum response 100 %, Minimum measured 5.474 %, R squared 0.683). Besides, in the experiment with dengue virus type 2 [8] (Baseline response 0 %, EC90 CI (lower) 0 uM, EC90 CI (upper) […] uM, Hill slope -0.4, Maximum measured 23.467 %, Maximum response 30 %, Minimum measured 3.547 %, R squared 0.817), the EC90 is 16.1 µM.
`CC(C)CNC(=O)c1cc(Cl)ccc1NS(=O)(=O)c1ccc(Oc2ccccc2Cl)cc1`: the EC50 in the experiment with dengue virus type 2 [1] is more than 6.5 µM; with Zika virus [2], 4.4 µM; with dengue virus type 2 [3] (VeroE6/TMPRSS2), 0.569 µM; in the experiment on Zika virus [4], more than 50 µM; in the experiment on Zika virus [5] (veroe6/tmprss2), > 3.33 µM and 19.2 µM and 29.1 µM; with dengue virus type 2 [6] (Dengue virus, Vero C1008) it was 5.64 µM. Besides, the EC90 was more than 50 µM with Zika virus [2] (VeroE6/TMPRSS2, Baseline response 0 %, Hill slope -0.566, Maximum measured 86.366 %, Maximum response 100 %, Minimum measured 3.533 %, R squared 0.722); more than 16.7 µM in the experiment on dengue virus type 2 [3] (VeroE6/TMPRSS2, Baseline response 0 %, Hill slope -0.624, Maximum measured 99.166 %, Maximum response 100 %, Minimum measured 12.707 %, R squared 0.743); more than 50 µM with Zika virus [4] (Vero C1008, Maximum measured -0.388 %, Minimum measured -2.415 %); 40.6 µM in the experiment with Zika virus [5] (Baseline response 0 %, EC90 CI (lower) 6.158 uM, EC90 CI (upper) 70.47 uM, Hill slope -6.578, Maximum measured 126.059 %, Maximum response 100 %, Minimum measured 2.779 %, P-gp concentration 2 uM, R squared 0.75, P-gp inhibitor Elacidar); 32.4 µM in the experiment with Zika virus [5] (Zika virus, VeroE6/TMPRSS2); more than 3.33 µM in the experiment on Zika virus [5] (Zika virus, VeroE6/TMPRSS2, Maximum measured 119.408 %, Minimum measured 55.418 %, P-gp concentration 2 uM, P-gp inhibitor Elacidar). The EC90 in the experiment with dengue virus type 2 [6] (Dengue virus, Vero C1008, Hill slope -37.142, Maximum measured 110.023 %, Minimum measured 0.325 %, R squared 0.985) was 5.99 µM; in the experiment with dengue virus type 2 [8] (Baseline response 0 %, EC90 CI (lower) 0.741 uM, EC90 CI (upper) 4.671 uM, Hill slope -3.39, Maximum measured 117.923 %, Maximum response 100 %, Minimum measured 16.6 %, R squared 0.718), 6.8 µM; in the experiment on dengue virus type 2 [8] (Baseline response 0 %, EC90 CI (lower) […] uM, EC90 CI (upper) 0.019 uM, Hill slope -1.255, Maximum measured 118.581 %, Maximum response 100 %, Minimum measured 5.952 %, R squared 0.745), 0.18 µM; with dengue virus type 2 [8] (Dengue virus, VeroE6/TMPRSS2, Maximum measured 165.458 %, Minimum measured 88.019 %) it was more than 16.7 µM.

Values taken from ChEMBL document CHEMBL5661943, “ASAP - In vitro antiviral effect” (2024).
